Measurements reported in patent US10383844B2, “Methods for treating pulmonary fibrosis using chromenone derivatives” (College of Medicine Pochon Cha University Industry—Academic …, priority 2017, dated 2019).

Key:
L132 cells [1] = experiment: Degree of radiation-induced EMT in L132 cells (western blots); format: cell-based; settings: L132, 0.1 μM, 1 hour later radiation 5 Gy, 48 hours, FIG. 3(B)
Protocol: (§1) For the experiment, L132 cells were cultured at 37° C. in a 5% CO2 incubator by using an RPMI 1640 (RPMI, GIBCO-Invitrogen, Paisley, Scotland, UK) medium containing 10% FBS and 1× Antibiotic-Antimycotic (GIBCO-Invitrogen, Paisley, Scotland, UK).
To carry out the western blots, the treated cells were respectively washed twice with 1×PBS (0.14 M NaCl, 2.68 mM KCl, 10 mM Na2HPO4, 1.83 mM KH2PO4), after which the resulting cells were dissolved in a protein lysis buffer (100 mM Tris-HCl (pH 7.5), 50 mM NaCl, 5 mM EDTA (pH 8.0), 0.5% NP-40, 0.5% Sodium deoxycholate, 50 mM β-glycerophosphate, 0.1 mM Na3VO4, 50 mM NaF). A cell suspension was centrifuged at 13000 rpm for 30 minutes, after which only a supernatant thereof was taken out, such that 1% BSA solution was injected by 8, 6, 4, 2 and 0 μL into Protein Dye 1 mL as a standard by using a Bradford assay and 2 μL of the supernatant was added thereinto. The resulting solution was divided by 200 μL into each of a 96-well plate, after which the resulting plate was put into an ELISA reader to measure an optical observance thereof at an wavelength of 595 nm, such that a 6× sample buffer (0.35 M Tris (pH 6.8), 3% glycerol, 1% Sodium Dodecyl Sulfate, 6 mM Dithiothreitol) was injected to make a sample containing the same amount of protein. Then, the resulting sample was soaked in 100° C. water and boiled for 5 minutes and the same amount of protein was analyzed by using SDS-PAGE. A primary antibody used for the western blots was anti-HSP27 and β-actin (Santacruz, sc-13132 and sc-47778), and also anti-E-cadherin (BD, #610181), anti-Vimentin (BD, #550513), anti-Fibronectin (BD, #610077), anti-snail (Cell signaling, #3895S), anti-alpha-smooth muscle actin (Sigma, A5228), and anti-Zo-1 (Life technologies, #402200) were used. A secondary antibody used was Goat anti rabbit and Goat anti mouse (Santacruz, sc-2004 and sc-2005). […]

[2] = tested on: radiation-induced pulmonary fibrosis; experiment: Small animal model of radiation-induced pulmonary fibrosis (local lung irradiation); format: in vivo; settings: C57BL/6 male mouse, left lung 75 Gy, 13.6 mg/kg intraperitoneally three times a week, FIG. 4(B)
Protocol: To identify an anti-pulmonary fibrosis effect according to a production of HSP27 dimers in a small animal model on lung side effects with clinically analogous irradiation, the small animal model was exposed to a radiation dose in a range of high dose clinical radiotherapy to induce a pulmonary fibrosis process.
As shown in FIG. 4(A), a 10 week-old C57BL/6 male mouse was anesthetized with an anesthetic mixture of 30 mg/kg Zoletil and 10 mg/kg Rompun, after which a left lung of the mouse was exposed to a high dose radiation of 75 Gy in a 3 mm range by using X-Rad 320 (Precision, North Branford, Conn., USA). Then, Compound 1 of the present invention was intraperitoneally administered to the mouse at a 13.6 mg/kg concentration three times a week. During its sacrifice, the mouse was anesthetized, after which 10% formalin was injected into the anesthetized mouse through an airway thereof to fix its lung, such that a tissue sample was prepared by using a paraffin embedding.
An amount of collagen was histologically identified through Masson's trichrome dyeing to compare degrees of pulmonary fibrosis with each other.

L132 cells [3] = experiment: Degree of EMT induced by TGF-beta in L132 cells (western blots); format: cell-based; settings: L132, 0.1 μM, 1 hour later TGF-beta 5 ng/mL for 48 hours, FIG. 3(A)
Protocol: as §1
To carry out the western blots, the treated cells were respectively washed twice with 1×PBS (0.14 M NaCl, 2.68 mM KCl, 10 mM Na2HPO4, 1.83 mM KH2PO4), after which the resulting cells were dissolved in a protein lysis buffer (100 mM Tris-HCl (pH 7.5), 50 mM NaCl, 5 mM EDTA (pH 8.0), 0.5% NP-40, 0.5% Sodium deoxycholate, 50 mM β-glycerophosphate, 0.1 mM Na3VO4, 50 mM NaF). A cell suspension was centrifuged at 13000 rpm for 30 minutes, after which only a supernatant thereof was taken out, such that 1% BSA solution was injected by 8, 6, 4, 2 and 0 μL into Protein Dye 1 mL as a standard by using a Bradford assay and 2 μL of the supernatant was added thereinto. The resulting solution was divided by 200 μL into each of a 96-well plate, after which the resulting plate was put into an ELISA reader to measure an optical observance thereof at an wavelength of 595 nm, such that a 6× sample buffer (0.35 M Tris (pH 6.8), 3% glycerol, 1% Sodium Dodecyl Sulfate, 6 mM Dithiothreitol) was injected to make a sample containing the same amount of protein. Then, the resulting sample was soaked in 100° C. water and boiled for 5 minutes and the same amount of protein was analyzed by using SDS-PAGE. A primary antibody used for the western blots was anti-HSP27 and β-actin (Santacruz, sc-13132 and sc-47778), and also anti-E-cadherin (BD, #610181), anti-Vimentin (BD, #550513), anti-Fibronectin (BD, #610077), anti-snail (Cell signaling, #3895S), anti-alpha-smooth muscle actin (Sigma, A5228), and anti-Zo-1 (Life technologies, #402200) were used. A secondary antibody used was Goat anti rabbit and Goat anti mouse (Santacruz, sc-2004 and sc-2005).
To identify a degree of EMT according to a production of altered HSP27 dimers in cells, L132, a normal lung cell, was treated with Compound 1 of the present invention at a 0.1 μM concentration, and in 1 hour later the cell was treated with TGF-beta at a 5 ng/mL concentration for 48 hours. Then, a cell culture and western blots were performed in the same method as the above Experimental Example 1.

SMILES: Cc1cc(=O)c2c(OCC3CS3)cc(OCC3CS3)cc2o1 (stereo not drawn)
- melting point: 95 to 96 °C

SMILES: Cc1cc(=O)c2c(O)cc(OCC3CS3)cc2o1 (stereo not drawn) [Compound 1, 5-hydroxy-2-methyl-7-(thiirane-2-ylmethoxy)-4H-chromene-4-one]
- expression of E-cadherin (L132 cells [1]): mitigated a decrease
- expression of Twist (marker of mesenchymal cells) (L132 cells [1]): inhibited an increase
- expression of Zo-1 (L132 cells [1]): mitigated a decrease
- immune response lesion in locally irradiated lung region (naked eye) [2]: the lesion was recovered
- altered HSP dimers (L132 cells [3]): increasing altered HSP dimers in a dose-dependent manner
- expression of E-cadherin (marker of epithelial cells) (L132 cells [3]): mitigating a decrease
- expression of Fibronectin (marker of mesenchymal cells) (L132 cells [3]): inhibiting an increase
- expression of Snail (marker of mesenchymal cells) (L132 cells [3]): inhibiting an increase
